Target: T1, Programmed cell death protein 4 (Homo sapiens, UniProt Q53EL6)
T1 sequence (Q53EL6 whole entry): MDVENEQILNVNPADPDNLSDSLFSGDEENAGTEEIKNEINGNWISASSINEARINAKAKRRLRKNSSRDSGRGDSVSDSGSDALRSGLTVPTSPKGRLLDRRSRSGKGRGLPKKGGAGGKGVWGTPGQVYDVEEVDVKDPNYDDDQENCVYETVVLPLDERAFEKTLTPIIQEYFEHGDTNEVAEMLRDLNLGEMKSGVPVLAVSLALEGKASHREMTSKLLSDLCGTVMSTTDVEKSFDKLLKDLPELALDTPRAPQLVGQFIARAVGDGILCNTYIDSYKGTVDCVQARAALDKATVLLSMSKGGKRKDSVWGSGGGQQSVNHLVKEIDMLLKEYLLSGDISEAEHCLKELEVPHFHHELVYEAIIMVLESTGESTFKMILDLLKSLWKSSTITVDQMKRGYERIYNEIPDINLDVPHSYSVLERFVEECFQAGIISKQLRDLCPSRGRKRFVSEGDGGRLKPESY
Assay: Stabilization of Pdcd4 expressed in human HEK293 cells assessed as inhibition of TPA-induced degradation by luciferase reporter assay

SMILES: Nc1ncnc2c1ccn2[C@@H]1O[C@H](CO)[C@@H](O)[C@H]1O ['2-(4-AMINO-PYRROLO[2,3-D]PYRIMIDIN-7-YL)-5-HYDROXYMETHYL-TETRAHYDRO-FURAN-3,4-DIOL]
- IC50: 880 nM
